The target in one assay is T1, WT/R232 STING protein (Homo sapiens, UniProt Q86WV6, H232R).
T1 construct: host or cells: HEK293T
Briefly: Luciferase reporter assay in HEK293T-hSTING-Luciferase cells, WT/R232. It is filed as cell-based. The following applies: 20 hr stimulation, read-out: R232 Activity (EC50 range). The procedure, abridged: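 […], read by luminescence from supernatant after 20 h compound stimulation. Cells: clonally selected HEK293T (5×10^5/well) stably carrying WT/R232 human STING and a luciferase reporter under five tandem ISREs fused to an ISG54 minimal promoter.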
On the technique in general: Reporter assays use an easily measured gene product as a stand-in for the process of interest.

For another assay, the target named is T2, hSTING(H232) (Homo sapiens, UniProt Q86WV6).
T2 construct: host or cells: HEK293T
T2 sequence (Q86WV6 whole entry): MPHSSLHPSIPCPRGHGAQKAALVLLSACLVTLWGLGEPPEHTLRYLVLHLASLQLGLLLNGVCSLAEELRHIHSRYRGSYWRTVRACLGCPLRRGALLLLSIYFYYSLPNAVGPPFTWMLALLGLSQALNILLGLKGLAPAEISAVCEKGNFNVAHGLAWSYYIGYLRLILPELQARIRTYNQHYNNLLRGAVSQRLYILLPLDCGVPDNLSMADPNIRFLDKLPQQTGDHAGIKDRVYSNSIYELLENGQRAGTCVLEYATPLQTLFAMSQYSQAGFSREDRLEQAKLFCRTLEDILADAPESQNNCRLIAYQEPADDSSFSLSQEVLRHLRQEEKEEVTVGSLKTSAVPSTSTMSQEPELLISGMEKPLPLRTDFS
Briefly: Luciferase reporter assay in HEK293T-hSTING-Luciferase cells, H232 polymorph. The following applies: 20 hr stimulation, read-out: H232 activity (EC50 range). It is filed as cell-based. The source says:
(§1) • a) Stable STING expressing cells—Stable HEK293T STING-expressing cell lines were generated using plasmids purchased from Invivogen, Calif., USA, that contain STING cDNA cloned into the pUNO-1 vector under hEF1-HTLV promoter and containing the Blasticidin selection cassette. The plasmids hSTING(R232), hSTING(H232), hSTING(HAQ) were directly procured from Invivogen while hSTING (AQ) and hSTING (Q) were derived from hSTING(HAQ) and hSTING (R232) plasmids respectively by using a PCR based site directed mutagenesis method. These vectors were individually transfected into HEK293T cells using Lipofectamine (Invitrogen) and transfected cells were selected under Blasticidin selection. These transfected cells were further subjected to clonal selection using the limiting dilution method to obtain clonally pure populations of HEK cells transfected with each of the above mentioned human STING variants. Only those clones were selected in which ligand independent activation of STING was minimal. • b) Stable Luciferase reporter gene expressing cells—Stable HEK293T Luciferase reporter gene expressing cell lines were generated using pCDNA4 plasmids under an IRF-inducible promoter. This promoter is comprised of five tandem interferon-stimulated response elements (ISRE) fused to an ISG54 minimal promoter. This vector was transfected into HEK293T cells using Lipofectamine (Invitrogen) and transfected cells were selected under Zeocin selection. These transfected cells were further subjected to clonal selection using the limiting dilution method to obtain clonally pure populations of HEK cells transfected the Luciferase reporter construct. Only those clones were selected in which ligand independent induction of luciferase was minimal.
(§2) 5×10^5 clonally selected HEK293T-hSTING-Luciferase cells were seeded in 384-well plates in growth medium and stimulated with novel compounds. After 20 hr of stimulation supernatant were removed and secretary reporter gene activity were measured using the Quanti-Luc detection system (Invivogen) on a Spectramax i3X luminometer.
(§3) The 5 major polymorphisms of human STING are shown in FIG. 1, with their prevalence in human populations indicated.

The target in another assay is T3, hSTING(HAQ) (Homo sapiens, UniProt Q86WV6, G230A/H232R/R293Q/R71H).
T3 construct: host or cells: HEK293T
T3 sequence (Q86WV6 whole entry R71H/G230A/H232R/R293Q): as the sequence (Q86WV6 whole entry) above, with R71H, G230A, H232R, R293Q counted along it
Kind of assay: Luciferase reporter assay in HEK293T-hSTING-Luciferase cells, HAQ polymorph. It is filed as cell-based. The following applies: 20 hr stimulation, read-out: HAQ activity (EC50 range).
Source text: as §1, §2, §3

Another assay deals with IRF pathway. Kind of assay: Reporter gene expression assay in THP1-Dual cells, IRF axis (secreted Lucia luciferase). The following applies: read-out: THP-IRF activity (EC50 range). The format is cell-based, human. The protocol: (§4) THP1-Dual™ cells (Invivogen) were derived from the human THP-1 monocyte cell line by stable integration of two inducible reporter constructs. As a result, THP1-Dual™ cells allow the simultaneous study of the NF-κB pathway, by monitoring the activity of secreted SEAP, and the IRF pathway, by assessing the activity of a secreted luciferase (Lucia). […] THP1-Dual™ cells were seeded in 384-well plates in growth medium and stimulated with novel compounds. After […] of stimulation supernatant were removed and reporter proteins were readily measured in the cell culture supernatant using QUANTI-Blue™ (Invivogen), a SEAP detection reagent, and QUANTI-Luc™ (Invivogen), a luciferase detection reagent on a Spectramax i3X luminometer.

In a further assay the test system is NF-κB pathway. Briefly: Reporter gene expression assay in THP1-Dual cells, NFkB axis (secreted SEAP). The format is cell-based, human. The following applies: read-out: THP-NFKB activity (EC50 range). The protocol: as §4

This is an account of results in patent US20200138827A1, “SMALL MOLECULE MODULATORS OF HUMAN STING” (Curadev Pharma Limited, priority 2017, published 2020).

Like-named read-outs stand apart in the source and are kept apart here. Some results are limits rather than exact numbers.

T1 sequence (Q86WV6 whole entry H232R): as the sequence (Q86WV6 whole entry) above, with H232R counted along it

As usually defined, the EC50 is the concentration giving half of the maximal effect. `CCCC1Sc2ccc(C(=O)NCc3c(F)cc(F)cc3F)cc2N(Cc2c(F)cccc2Cl)C1=O` (centres unmarked) [Example 147, 4-(2-chloro-6-fluorobenzyl)-3-oxo-2-propyl-N-(2,4,6-trifluorobenzyl)-3,4-dihydro-2H-benzo[b-1,4]thiazine-6-carboxamide]: the EC50 at WT/R232 STING protein was under 1000 nM; at hSTING(H232), 1 to 10 µM; on hSTING(HAQ) it was 1 to 10 µM; in the assay with IRF pathway (Homo sapiens, THP1-Dual), over 10 µM; in the assay on NF-κB pathway (Homo sapiens, THP1-Dual), over 10 µM.

For `CC1Sc2ccc(C(=O)NCc3c(F)cc(F)cc3F)cc2N(Cc2cc(F)cc(F)c2)C1=O` (centres unmarked) [Example 148, 4-(3,5-difluorobenzyl)-2-methyl-3-oxo-N-(2,4,6-trifluorobenzyl)-3,4-dihydro-2H-benzo[b][1,4] thiazine-6-carboxamide], the EC50 was under 1000 nM at WT/R232 STING protein; under 1 µM on hSTING(H232); under 1 µM at hSTING(HAQ); 1 to 10 µM in the assay with IRF pathway; under 1 µM with NF-κB pathway.

For the compound `CC1Sc2ccc(C(=O)NCc3cc4ccccc4o3)cc2N(Cc2cc(F)cc(F)c2)C1=O` (centres unmarked) [Example 149, N-(benzofuran-2-ylmethyl)-4-(3,5-difluorobenzyl)-2-methyl-3-oxo-3,4-dihydro-2H-benzo[b][1,4] thiazine-6-carboxamide], the EC50 at WT/R232 STING protein was under 1000 nM; at hSTING(H232), under 1 µM; on hSTING(HAQ), under 1 µM; with IRF pathway (Homo sapiens, THP1-Dual), 1 to 10 µM; in the assay on NF-κB pathway (Homo sapiens, THP1-Dual), under 1 µM.

Regarding `CC1(CO)Sc2ccc(C(=O)NCc3ccc(F)cc3F)cc2N(Cc2c(F)cccc2Cl)C1=O` (centres unmarked) [Example 151, 4-(2-chloro-6-fluorobenzyl)-N-(2,4-difluorobenzyl)-2-(hydroxymethyl)-2-methyl-3-oxo-3,4-dihydro-2H-benzo[b][1,4] thiazine-6-carboxamide], the EC50 is under 1000 nM at WT/R232 STING protein; 1 to 10 µM at hSTING(H232); 1 to 10 µM at hSTING(HAQ); 1 to 10 µM in the assay with IRF pathway (Homo sapiens, THP1-Dual); 1 to 10 µM with NF-κB pathway (Homo sapiens, THP1-Dual).

Turning to `Cc1ccc(CNC(=O)c2ccc3c(c2)N(Cc2cc(F)cc(F)c2)C(=O)C(C)S3)o1` (centres unmarked) [Example 152, 4-(3,5-difluorobenzyl)-2-methyl-N-((5-methylfuran-2-yl)methyl)-3-oxo-3,4-dihydro-2H-benzo[b][1,4] thiazine-6-carboxamide], the EC50 was under 1000 nM at WT/R232 STING protein; over 10 µM at hSTING(H232); over 10 µM at hSTING(HAQ); over 10 µM in the assay with IRF pathway (Homo sapiens, THP1-Dual); over 10 µM with NF-κB pathway (Homo sapiens, THP1-Dual).

On to `CC1Sc2ccc(C(=O)NCc3c(F)cc(F)cc3F)cc2N(Cc2cc(F)cc(F)c2)C1=O` (centres unmarked) [Example 153, 4-(3,5-difluorobenzyl)-2-methyl-3-oxo-N-(2,4,6-trifluorobenzyl)-3,4-dihydro-2H-benzo[b][1,4] thiazine-6-carboxamide], for which the EC50 on WT/R232 STING protein was under 1000 nM; on hSTING(H232), 1 to 10 µM; on hSTING(HAQ), 1 to 10 µM; in the assay with IRF pathway (Homo sapiens, THP1-Dual) it was 1 to 10 µM; in the assay with NF-κB pathway (Homo sapiens, THP1-Dual), 1 to 10 µM.

As to `CC1(C)Sc2ccc(C(=O)NCc3cc4ccccc4o3)cc2N(Cc2c(F)cccc2Cl)C1=O` [Example 154, N-(benzofuran-2-ylmethyl)-4-(2-chloro-6-fluorobenzyl)-2,2-dimethyl-3-oxo-3,4-dihydro-2H-benzo[b][1,4] thiazine-6-carboxamide], the EC50 at WT/R232 STING protein is under 1000 nM; on hSTING(H232) it was 1 to 10 µM; at hSTING(HAQ) it was under 1 µM; in the assay with IRF pathway (Homo sapiens, THP1-Dual), 1 to 10 µM; in the assay on NF-κB pathway (Homo sapiens, THP1-Dual) it was 1 to 10 µM.

For the compound `CC1Sc2ccc(C(=O)NCc3ccco3)cc2N(Cc2cc(F)cc(F)c2)C1=O` (centres unmarked) [Example 156, 4-(3,5-difluorobenzyl)-N-(furan-2-ylmethyl)-2-methyl-3-oxo-3,4-dihydro-2H-benzo [b][1,4]thiazine-6-carboxamide], the EC50 on WT/R232 STING protein is under 1000 nM; at hSTING(H232), 1 to 10 µM; on hSTING(HAQ), 1 to 10 µM; in the assay with IRF pathway (Homo sapiens, THP1-Dual), 1 to 10 µM; in the assay with NF-κB pathway (Homo sapiens, THP1-Dual), 1 to 10 µM.

On to `CC1Sc2ccc(C(=O)NCc3c(F)cc(F)cc3F)cc2N(Cc2ccncc2)C1=O` (centres unmarked) [Example 157, 2-methyl-3-oxo-4-(pyridin-4-ylmethyl)-N-(2,4,6-trifluorobenzyl)-3,4-dihydro-2H-benzo[b][1,4] thiazine-6-carboxamide], for which the concentration giving a half-maximal response (EC50) on WT/R232 STING protein is under 1000 nM; at hSTING(H232), 1 to 10 µM; on hSTING(HAQ), 1 to 10 µM; with IRF pathway (Homo sapiens, THP1-Dual) it was 1 to 10 µM; with NF-κB pathway (Homo sapiens, THP1-Dual), 1 to 10 µM.

For `Cc1cc(CN2C(=O)C(C)Sc3ccc(C(=O)NCc4c(F)cc(F)cc4F)cc32)on1` (centres unmarked) [Example 158, 2-methyl-4-((3-methylisoxazol-5-yl)methyl)-3-oxo-N-(2,4,6-trifluorobenzyl)-3,4-dihydro-2H-benzo[b][1,4] thiazine-6-carboxamide], the EC50 at WT/R232 STING protein was under 1000 nM; at hSTING(H232), 1 to 10 µM; on hSTING(HAQ), 1 to 10 µM; in the assay on IRF pathway (Homo sapiens, THP1-Dual), 1 to 10 µM; with NF-κB pathway (Homo sapiens, THP1-Dual), 1 to 10 µM.

As for `Cc1cc(CN2C(=O)C(C)Sc3ccc(C(=O)NCc4c(F)cc(F)cc4F)cc32)no1` (centres unmarked) [Example 159, 2-methyl-4-((5-methylisoxazol-3-yl)methyl)-3-oxo-N-(2,4,6-trifluorobenzyl)-3,4-dihydro-2H-benzo[b][1,4] thiazine-6-carboxamide], the EC50 is under 1000 nM on WT/R232 STING protein; 1 to 10 µM on hSTING(H232); 1 to 10 µM at hSTING(HAQ); 1 to 10 µM with IRF pathway (Homo sapiens, THP1-Dual); 1 to 10 µM with NF-κB pathway (Homo sapiens, THP1-Dual).

Consider `CC1Sc2ccc(C(=O)NCc3c(F)cc(F)cc3F)cc2N(Cc2cccc(C(N)=O)c2)C1=O` (centres unmarked) [Example 160, 4-(3-carbamoylbenzyl)-2-methyl-3-oxo-N-(2,4,6-trifluorobenzyl)-3,4-dihydro-2H-benzo[b][1,4] thiazine-6-carboxamide], for which the EC50 at WT/R232 STING protein was under 1000 nM; at hSTING(H232), over 10 µM; on hSTING(HAQ), over 10 µM; with IRF pathway (Homo sapiens, THP1-Dual), over 10 µM; in the assay on NF-κB pathway (Homo sapiens, THP1-Dual), over 10 µM.

With `CC1(C)Sc2ccc(C(=O)NCc3cc4ccccc4o3)cc2N(Cc2ccccc2F)C1=O` [Example 161, N-(benzofuran-2-ylmethyl)-4-(2-fluorobenzyl)-2,2-dimethyl-3-oxo-3,4-dihydro-2H-benzo[b][1,4] thiazine-6-carboxamide], the EC50 on WT/R232 STING protein is 1000 to 10000 nM; at hSTING(H232), over 10 µM; on hSTING(HAQ) it was 1 to 10 µM; in the assay on IRF pathway (Homo sapiens, THP1-Dual) it was over 10 µM; in the assay with NF-κB pathway (Homo sapiens, THP1-Dual) it was over 10 µM.

As for `O=C(NCc1c(F)cc(F)cc1F)c1cnc2c(c1)N(Cc1c(F)cccc1Cl)C(=O)CS2` [Example 178, 1-(2-chloro-6-fluorobenzyl)-2-oxo-N-(2,4,6-trifluorobenzyl)-2,3-dihydro-1H-pyrido[2,3-b-1,4]thiazine-7-carboxamide], the EC50 is under 1000 nM on WT/R232 STING protein; over 10 µM on hSTING(H232); over 10 µM on hSTING(HAQ); over 10 µM with IRF pathway (Homo sapiens, THP1-Dual); over 10 µM with NF-κB pathway (Homo sapiens, THP1-Dual).

With `O=C(NCc1ccco1)c1ccc2c(n1)N(Cc1c(F)cccc1Cl)C(=O)CS2` [Example 181, 4-(2-chloro-6-fluorobenzyl)-N-(furan-2-ylmethyl)-3-oxo-3,4-dihydro-2H-pyrido[3,2-b-1,4]thiazine-6-carboxamide], the EC50 at WT/R232 STING protein is 1000 to 10000 nM; on hSTING(H232) it was over 10 µM; at hSTING(HAQ), over 10 µM; in the assay with IRF pathway (Homo sapiens, THP1-Dual), over 10 µM; in the assay with NF-κB pathway (Homo sapiens, THP1-Dual) it was over 10 µM.

For the compound `O=C(NCc1cc2ccccc2o1)c1ccc2c(n1)N(Cc1cc(F)cc(F)c1)C(=O)CS2` [Example 183, N-(benzofuran-2-ylmethyl)-4-(3,5-difluorobenzyl)-3-oxo-3,4-dihydro-2H-pyrido[3,2-b-1,4]thiazine-6-carboxamide], the EC50 at WT/R232 STING protein is 1000 to 10000 nM; at hSTING(H232) it was 1 to 10 µM; on hSTING(HAQ), 1 to 10 µM; with IRF pathway (Homo sapiens, THP1-Dual), over 10 µM; with NF-κB pathway (Homo sapiens, THP1-Dual) it was 1 to 10 µM.
